Experimental data: ChEMBL document CHEMBL5126522, “In vitro and in vivo evaluation of 211At-labeled fibroblast activation protein inhibitor for glioma treatment” (Bioorg Med Chem, 2022)
Calls of active or inactive are those of the source.

Key:
U-87MG ATCC [1] = assay: Cytotoxicity against human U-87 MG cells assessed as reduction in cell viability incubated in radioactive medium for 12 hrs followed by incubation in non-radioactive medium for 24 hrs by CCK8 assay; assay type: functional, cell-based; details: dose 12-92 kBq, time 36.0 hrs, tested as the 211At-labelled form, DDE = dose-dependent effect
U-87MG ATCC [2] = assay: Induction of cell cycle arrest in human U-87 MG cells assessed as increase in proportion of cells at S phase at 185 kBq incubated in radioactive medium for 12 hrs followed by incubation in non-radioactive medium for 24 hrs by PI staining based flow cytometry; assay type: functional; details: time 36.0 hrs, tested as the 211At-labelled form
U-87MG ATCC [3] = assay: Inhibition of colony formation in human U-87 MG cells incubated in radioactive medium for 12 hrs followed by incubation in non-radioactive medium for 14 days by crystal violet staining based analysis; assay type: functional, cell-based; details: dose 4.6-18.5 kBq, time 852.0 hrs, tested as the 211At-labelled form, DDE = dose-dependent effect
U-87MG ATCC [4] = assay: Induction of apoptosis in human U-87 MG cells assessed as fragmented and condensed chromatin at 18.5 to 185 kBq measured after 24 hrs by DAPI staining based confocal microscopy; assay type: functional, cell-based; details: dose 18.5-185 kBq, tested as the 211At-labelled form
U-87MG ATCC [5] = assay: Anti-tumor activity against human U-87 MG cells xenografted in BALB/c nude mouse assessed as reduction in tumor growth administered IT measured every 3 days by electronic caliper analysis; assay type: functional; details: dose 0.18-0.55 MBq, DDE = dose-dependent effect, tested as the 211At-labelled form
U-87MG ATCC [6] = assay: Antitumor activity against human U-87 MG cells xenografted in BALB/c nude mouse assessed as reduction in Ki67 expression in tumor at 0.55 MBq, it measured after 12 days by immunohistochemical analysis; assay type: functional, cell-based; details: time 12.0 day, tested as the 211At-labelled form

N#C[C@@H]1CC(F)(F)CN1C(=O)CNC(=O)c1ccnc2ccc(OCCCN3CCN(C(=O)c4ccc([At])cc4)CC3)cc12
active: Activity (U-87MG ATCC [1]) Dde | Activity (U-87MG ATCC [2]) | inhibition (U-87MG ATCC [3]) Dde | Activity (U-87MG ATCC [4]) | Activity (U-87MG ATCC [5]) Dde | Activity (U-87MG ATCC [6])
